Source: patent US9505774B2, “Polymorphic forms of icotinib maleate and uses thereof” (BETTA PHARMACEUTICALS CO., LTD., priority 2013, dated 2016)
Counter-ions that a name gives are not always drawn.

Test: Pharmacokinetic study of Icotinib hydrochloride and Polymorph Form II of Icotinib maleate, oral suspension, plasma by HPLC
Format: in vivo
Settings: Sprague-Dawley (SD), rat, fasted male SD rats, oral suspension in sodium carboxymethyl cellulose, dose equivalent to 35 mg/kg Icotinib; for AUC(0-t): read-out: AUC(0-24)
Excerpt: Drugs and reagents: the Icotinib hydrochloride used in this study was of Crystalline Form I disclosed by the WO2010/003313. Polymorph Form II of Icotinib maleate and Icotinib hydrochloride were ground to fine particles. The material content (purity) was not less than 99.0%. Sodium carboxymethyl cellulose was medical supply graded.
Experimental animals: SD rats were divided to an Icotinib hydrochloride group and a Polymorph Form II group, with both groups consisting of males.
Pharmaceutical preparation: the amount of each compound was weighed and then sodium carboxymethyl cellulose was added to result in the test compound's concentration of 0.5%. The solid mixture was then added to prepare a suspension thereof at a final concentration of […] in water.
Administration and sample collection: each suspension was administered orally to fasted SD rats at a dose equivalent to 35 mg/kg Icotinib in a dose volume of 5 ml/kg. 0.4 ml of blood was collected in EDTA-K pre anticoagulant tubes at time intervals of 0.5, 1, 1.5, 2, 4, 6, 8 and 24 hrs after the administration of the test compound, centrifuged at 3000 rpm for 10 minutes, and 120 μl plasma was collected and kept in cold storage.
Samples were analyzed by high performance liquid chromatography. The chromatographic conditions utilized C18-silane bonded silica as stationary phase, 0.02 mol/L of sodium dihydrogen phosphate in acetonitrile (40:60, using sodium hydroxide solution to adjust pH to 5.0) as the mobile phase and a detection wavelength of 334 nm. PK profile comparison of Polymorph Form II of Icotinib maleate and Crystalline Form I of Icotinib hydrochloride was summarized in Table 1 and FIG. 3.

SMILES | AUC(0-inf) [ng·h/mL] | Cmax [ng/mL] | Tmax [h] | half-life [h] | AUC(0-t) [ng·h/mL]
C#Cc1cccc(Nc2ncnc3cc4c(cc23)OCCOCCOCCO4)c1.O=C(O)/C=C\C(=O)O [Form II, Icotinib maleate] | 65400 | 7530 | 5.33 | 3.06 | 64800
C#Cc1cccc(Nc2ncnc3cc4c(cc23)OCCOCCOCCO4)c1 [Icotinib hydrochloride] | 19100 | 3360 | 2.33 | 2.94 | 19000
